In PubChem BioAssay (NCI):
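Each compound was tested at five concentrations against cells in 96-well plates for 48 hours. At the TGI there is no net growth.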

Experiments:
Experiment in all cases: growth of human tumour cells (NCI), 48 h
786-0 renal = system: 786-0 renal
A498 renal = system: A498 renal
A549 NSCLC = system: A549 NSCLC
ACHN renal = system: ACHN renal
CAKI-1 renal = system: CAKI-1 renal
CCRF-CEM leukemia = system: CCRF-CEM leukemia
COLO 205 colon = system: COLO 205 colon
DMS 114 small cell lung = system: DMS 114 small cell lung
DMS 273 small cell lung = system: DMS 273 small cell lung
EKVX NSCLC = system: EKVX NSCLC
HCT-116 colon = system: HCT-116 colon
HCT-15 colon = system: HCT-15 colon
HL-60(TB) leukemia = system: HL-60(TB) leukemia
HOP-18 NSCLC = system: HOP-18 NSCLC
HOP-62 NSCLC = system: HOP-62 NSCLC
HOP-92 NSCLC = system: HOP-92 NSCLC
HT29 colon = system: HT29 colon
IGROV1 ovarian = system: IGROV1 ovarian
K-562 leukemia = system: K-562 leukemia
KM12 colon = system: KM12 colon
KM20L2 colon = system: KM20L2 colon
LOX IMVI melanoma = system: LOX IMVI melanoma
LXFL 529 NSCLC = system: LXFL 529 NSCLC
M14 melanoma = system: M14 melanoma
M19-MEL melanoma = system: M19-MEL melanoma
MALME-3M melanoma = system: MALME-3M melanoma
MOLT-4 leukemia = system: MOLT-4 leukemia
NCI-H460 lung = system: NCI-H460 lung
NCI-H522 lung = system: NCI-H522 lung
OVCAR-3 ovarian = system: OVCAR-3 ovarian
OVCAR-4 ovarian = system: OVCAR-4 ovarian
OVCAR-5 ovarian = system: OVCAR-5 ovarian
OVCAR-8 ovarian = system: OVCAR-8 ovarian
RPMI-8226 leukemia = system: RPMI-8226 leukemia
SF-268 CNS = system: SF-268 CNS
SF-295 CNS = system: SF-295 CNS
SF-539 CNS = system: SF-539 CNS
SK-MEL-2 melanoma = system: SK-MEL-2 melanoma
SK-MEL-5 melanoma = system: SK-MEL-5 melanoma
SK-OV-3 ovarian = system: SK-OV-3 ovarian
SN12C renal = system: SN12C renal
SNB-19 CNS = system: SNB-19 CNS
SNB-75 CNS = system: SNB-75 CNS
SNB-78 CNS = system: SNB-78 CNS
SW-620 colon = system: SW-620 colon
TK-10 renal = system: TK-10 renal
U251 CNS = system: U251 CNS
UACC-257 melanoma = system: UACC-257 melanoma
UACC-62 melanoma = system: UACC-62 melanoma
UO-31 renal = system: UO-31 renal
XF 498 CNS = system: XF 498 CNS
DLD-1 colon = system: DLD-1 colon
HCC-2998 colon = system: HCC-2998 colon
NCI-H226 lung = system: NCI-H226 lung
NCI-H23 lung = system: NCI-H23 lung
RXF 393 renal = system: RXF 393 renal
SK-MEL-28 melanoma = system: SK-MEL-28 melanoma
SR leukemia = system: SR leukemia

SMILES: Cc1cc(NS(=O)(=O)c2ccc(NC(=O)c3ccc(Cl)c4c(Nc5ccc(S(=O)(=O)Nc6cc(C)on6)cc5)c5ccccc5nc34)cc2)no1
- TGI (786-0 renal): 32.2 µM
- TGI (A498 renal): 47.4 µM
- TGI (A549 NSCLC): 62.4 µM
- TGI (ACHN renal): 53.7 µM
- TGI (CAKI-1 renal): 30.6 µM
- TGI (CCRF-CEM leukemia): 51.8 µM
- TGI (COLO 205 colon): 41.4 µM
- TGI (DMS 114 small cell lung): 42.5 µM
- TGI (DMS 273 small cell lung): 42 µM
- TGI (EKVX NSCLC): 64.9 µM
- TGI (HCT-116 colon): 27.4 µM
- TGI (HCT-15 colon): 43 µM
- TGI (HL-60(TB) leukemia): 49.5 µM
- TGI (HOP-18 NSCLC): 30.4 µM
- TGI (HOP-62 NSCLC): 55 µM
- TGI (HOP-92 NSCLC): 46.2 µM
- TGI (HT29 colon): 41.6 µM
- TGI (IGROV1 ovarian): 49.7 µM
- TGI (K-562 leukemia): 64.3 µM
- TGI (KM12 colon): 44.3 µM
- TGI (KM20L2 colon): 40 µM
- TGI (LOX IMVI melanoma): 41.6 µM
- TGI (LXFL 529 NSCLC): 48.5 µM
- TGI (M14 melanoma): 49.4 µM
- TGI (M19-MEL melanoma): 50.3 µM
- TGI (MALME-3M melanoma): 48.7 µM
- TGI (MOLT-4 leukemia): 77.3 µM
- TGI (NCI-H460 lung): 53.9 µM
- TGI (NCI-H522 lung): 33.2 µM
- TGI (OVCAR-3 ovarian): 33.4 µM
- TGI (OVCAR-4 ovarian): 81.8 µM
- TGI (OVCAR-5 ovarian): 38.6 µM
- TGI (OVCAR-8 ovarian): > 100 µM
- TGI (RPMI-8226 leukemia): 72.7 µM
- TGI (SF-268 CNS): 42.3 µM
- TGI (SF-295 CNS): 57.4 µM
- TGI (SF-539 CNS): 32.3 µM
- TGI (SK-MEL-2 melanoma): 50.5 µM
- TGI (SK-MEL-5 melanoma): 55.4 µM
- TGI (SK-OV-3 ovarian): 42.2 µM
- TGI (SN12C renal): 41.7 µM
- TGI (SNB-19 CNS): 32.4 µM
- TGI (SNB-75 CNS): 24.5 µM
- TGI (SNB-78 CNS): 84.1 µM
- TGI (SW-620 colon): 66.1 µM
- TGI (TK-10 renal): 71.1 µM
- TGI (U251 CNS): 32.8 µM
- TGI (UACC-257 melanoma): 43.5 µM
- TGI (UACC-62 melanoma): 34.3 µM
- TGI (UO-31 renal): 37.1 µM
- TGI (XF 498 CNS): 75.9 µM

SMILES: CC(=O)/C=C1\CC(=O)N(C)c2ccccc2N1
- TGI (786-0 renal): > 100 µM
- TGI (A549 NSCLC): > 100 µM
- TGI (CAKI-1 renal): > 100 µM
- TGI (CCRF-CEM leukemia): > 100 µM
- TGI (COLO 205 colon): > 100 µM
- TGI (DLD-1 colon): 22.9 µM
- TGI (DMS 114 small cell lung): 64.3 µM
- TGI (DMS 273 small cell lung): > 100 µM
- TGI (EKVX NSCLC): > 100 µM
- TGI (HCC-2998 colon): > 100 µM
- TGI (HCT-116 colon): > 100 µM
- TGI (HOP-62 NSCLC): > 100 µM
- TGI (HOP-92 NSCLC): > 100 µM
- TGI (HT29 colon): > 100 µM
- TGI (IGROV1 ovarian): > 100 µM
- TGI (K-562 leukemia): > 100 µM
- TGI (KM12 colon): > 100 µM
- TGI (LOX IMVI melanoma): > 100 µM
- TGI (LXFL 529 NSCLC): > 100 µM
- TGI (M14 melanoma): > 100 µM
- TGI (M19-MEL melanoma): > 100 µM
- TGI (MALME-3M melanoma): > 100 µM
- TGI (MOLT-4 leukemia): > 100 µM
- TGI (NCI-H226 lung): > 100 µM
- TGI (NCI-H23 lung): > 100 µM
- TGI (NCI-H460 lung): > 100 µM
- TGI (NCI-H522 lung): > 100 µM
- TGI (OVCAR-3 ovarian): > 100 µM
- TGI (OVCAR-4 ovarian): > 100 µM
- TGI (OVCAR-5 ovarian): > 100 µM
- TGI (OVCAR-8 ovarian): > 100 µM
- TGI (RXF 393 renal): > 100 µM
- TGI (SF-268 CNS): > 100 µM
- TGI (SF-295 CNS): > 100 µM
- TGI (SF-539 CNS): > 100 µM
- TGI (SK-MEL-2 melanoma): > 100 µM
- TGI (SK-MEL-28 melanoma): > 100 µM
- TGI (SK-MEL-5 melanoma): 2.05 µM
- TGI (SK-OV-3 ovarian): > 100 µM
- TGI (SN12C renal): > 100 µM
- TGI (SNB-19 CNS): > 100 µM
- TGI (SNB-75 CNS): 0.953 µM
- TGI (SNB-78 CNS): > 100 µM
- TGI (SR leukemia): > 100 µM
- TGI (SW-620 colon): > 100 µM
- TGI (TK-10 renal): > 100 µM
- TGI (U251 CNS): > 100 µM
- TGI (UACC-62 melanoma): > 100 µM
- TGI (UO-31 renal): > 100 µM
- TGI (XF 498 CNS): > 100 µM
